The text below walks through data of BindingDB's records for doi:10.1016/j.bmcl.2006.04.011 (Ambrilia Biopharma, 2006).

The target in one test is T1, Dimer of Gag-Pol polyprotein [501-599] (Human immunodeficiency virus 1, UniProt P03367).
T1 construct: 501-599
The experiment in a line: Protease Inhibition Assay.
Details: not given
As for the experimental part: HIV-1 protease activity was measured by a continuous fluorometric assay. The proteolytic activity can be monitored by the increase in fluorescence intensity, and the protease products were analyzed by HPLC. IC50 values were determined from a dose-response curve, whereas Ki values were obtained by fitting initial rates to a tight-binding inhibition equation.
A word on the IC50: it is the point on the concentration scale where inhibition reaches its midpoint. The low end stands for inhibition by little substance, the high end for a need for much substance. The term Ki denotes a dissociation constant, usually derived from enzyme kinetics or from competition with a known ligand. A low value points to higher affinity. Compound `CC(C)CN(C(CO)CCCCNC(=O)[C@@H](NC(=O)OCc1ccccn1)C(c1ccccc1)c1ccccc1)S(=O)(=O)c1ccc(N)cc1` (stereo partly drawn) [pyridin-2-ylmethyl N-[(1S)-1-{[(5R)-5-[(4-aminobenzene)(2-methylpropyl)sulfonamido]-6-hydroxyhexyl]carbamoyl}-2,2-diphenylethyl]carbamate] had an IC50 of 0.12 nM and a Ki of 0.4 nM. Compound `CC(C)CN(C(CO)CCCCNC(=O)[C@@H](NC(=O)OCc1cccnc1)C(c1ccccc1)c1ccccc1)S(=O)(=O)c1ccc(N)cc1` (stereo partly drawn) [pyridin-3-ylmethyl N-[(1S)-1-{[(5R)-5-[(4-aminobenzene)(2-methylpropyl)sulfonamido]-6-hydroxyhexyl]carbamoyl}-2,2-diphenylethyl]carbamate] showed an IC50 of 0.48 nM and an inhibitory constant (Ki) of 0.36 nM. In the same order, the values of `CC(C)CN(C(CO)CCCCNC(=O)[C@@H](NC(=O)OCc1ccncc1)C(c1ccccc1)c1ccccc1)S(=O)(=O)c1ccc(N)cc1` (stereo partly drawn) [pyridin-4-ylmethyl N-[(1S)-1-{[(5R)-5-[(4-aminobenzene)(2-methylpropyl)sulfonamido]-6-hydroxyhexyl]carbamoyl}-2,2-diphenylethyl]carbamate] are 0.39 nM and 0.02 nM. For `CC(C)CN(C(CO)CCCCNC(=O)[C@@H](NC(=O)OC(C)(C)C)C(c1ccccc1)c1ccccc1)S(=O)(=O)c1ccc(N)cc1` (stereo partly drawn) [tert-butyl N-[(1S)-1-{[(5R)-5-[(4-aminobenzene)(2-methylpropyl)sulfonamido]-6-hydroxyhexyl]carbamoyl}-2,2-diphenylethyl]carbamate] the same measures were 0.4 nM and 0.5 nM.

The same test, now with this note: pH 4.7; 30 °C.
Turning to `COC(=O)N[C@@H](Cc1ccc2ccccc2c1)C(=O)NCCCCC(CO)N(CC(C)C)S(=O)(=O)c1ccc(N)cc1` (stereo partly drawn) [methyl N-[(1S)-1-{[(5R)-5-[(4-aminobenzene)(2-methylpropyl)sulfonamido]-6-hydroxyhexyl]carbamoyl}-2-(naphthalen-2-yl)ethyl]carbamate], the IC50 worked out at 1.2 nM. For `COC(=O)N[C@@H](Cc1ccccc1)C(=O)NCCCCC(CO)N(CC(C)C)S(=O)(=O)c1ccc(N)cc1` (stereo partly drawn) [methyl N-[(1S)-1-{[(5R)-5-[(4-aminobenzene)(2-methylpropyl)sulfonamido]-6-hydroxyhexyl]carbamoyl}-2-phenylethyl]carbamate], the IC50 was found to be 12 nM.

`COC(=O)N[C@@H](CCc1ccccc1)C(=O)NCCCCC(CO)N(CC(C)C)S(=O)(=O)c1ccc(N)cc1` (stereo partly drawn) [methyl N-[(1S)-1-{[(5R)-5-[(4-aminobenzene)(2-methylpropyl)sulfonamido]-6-hydroxyhexyl]carbamoyl}-3-phenylpropyl]carbamate] yielded an IC50 of 40 nM.

`COC(=O)N[C@H](C(=O)NCCCCC(CO)N(CC(C)C)S(=O)(=O)c1ccc(N)cc1)c1ccccc1` (stereo partly drawn) [methyl N-[(S)-{[(5R)-5-[(4-aminobenzene)(2-methylpropyl)sulfonamido]-6-hydroxyhexyl]carbamoyl}(phenyl)methyl]carbamate] gave an IC50 greater than 300 nM.
